Experimental findings from publication PMC6713091, “Exploring new structural features of the 4-[(3-methyl-4-aryl-2,3-dihydro-1,3-thiazol-2-ylidene)amino]benzenesulphonamide scaffold for the inhibition of human carbonic anhydrases” (Journal of Enzyme Inhibition and Medicinal Chemistry, 2019) are described below.

In one series the target is hCA XII (Homo sapiens, UniProt O43570). Kind of series: Carbonic anhydrase inhibition assay, hCA XII. It is filed as biochemical. Here is the method:
(§1) The protein quantity in the column effluents was determined spectrophotometrically at 280 nm. Sodium dodecyl sulphate polyacrylamide gel electrophoresis (SDS-PAGE) was applied with a Bio-Rad Mini Gel system Mini-PROTEINVR system (Hercules, CA), Bio-Rad Laboratories, Inc., China after purification of both CA isoenzymes. Briefly, it was performed in acrylamide for the running (10%) and the stacking gel (3%) contained SDS (0.1%), respectively. Activities of CA isoenzymes were determined according to a method by Verporte et al.[57]. The increase in absorbance of the reaction medium was spectrophotometrically recorded at 348 nm. Also, the quantity of protein was determined at 595 nm according to the Bradford method. Bovine serum albumin was used as standard protein. The IC50 values were obtained from activity (%) versus compounds plots. For calculation of KI values, three different concentrations were used. The Lineweaver–Burk curves were drawn and calculations were realised.

In a further series the target is hCA II (Homo sapiens, UniProt P00918). The series can be described thus: Carbonic anhydrase inhibition assay, hCA II. It is filed as biochemical. The method, then: (§2) The purification of cytosolic CA isoenzymes (CA I and CA II) was previously described with a simple one-step method by a Sepharose-4B-L tyrosine-sulphanilamide affinity chromatography.
as §1

The next series has as its target hCA I (Homo sapiens, UniProt P00915). Kind of series: Carbonic anhydrase inhibition assay, hCA I. It is filed as biochemical. Here is the method: as §2, §1
The target in another series is hCA IX (Homo sapiens, UniProt Q16790). The series can be described thus: Carbonic anhydrase inhibition assay, hCA IX. It is filed as biochemical. Here is the method: as §1

Chain of hCA XII (O43570 25-354): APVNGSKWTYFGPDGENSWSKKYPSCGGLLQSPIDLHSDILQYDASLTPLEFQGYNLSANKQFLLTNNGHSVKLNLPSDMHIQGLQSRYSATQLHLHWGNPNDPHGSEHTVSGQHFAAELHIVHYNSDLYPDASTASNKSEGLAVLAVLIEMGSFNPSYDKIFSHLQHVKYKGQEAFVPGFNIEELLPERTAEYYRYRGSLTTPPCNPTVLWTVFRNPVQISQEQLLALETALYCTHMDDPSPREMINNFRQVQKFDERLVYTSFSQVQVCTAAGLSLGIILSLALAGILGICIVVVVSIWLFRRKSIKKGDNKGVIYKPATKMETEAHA
Chain of hCA I (P00915 whole entry): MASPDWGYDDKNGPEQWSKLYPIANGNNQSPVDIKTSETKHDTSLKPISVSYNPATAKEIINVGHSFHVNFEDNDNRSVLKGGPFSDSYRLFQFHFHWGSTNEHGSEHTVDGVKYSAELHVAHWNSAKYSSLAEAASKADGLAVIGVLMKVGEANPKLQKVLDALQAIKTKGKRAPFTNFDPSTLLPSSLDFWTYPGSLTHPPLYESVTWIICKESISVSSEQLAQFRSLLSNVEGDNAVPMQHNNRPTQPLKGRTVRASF

The molecule `Cn1c(-c2ccc(F)cc2)cs/c1=N\c1ccc(S(N)(=O)=O)cc1` [EMAC8002c] returned a melting point of 230 to 233 °C. Same read-out and setting: the value for `Cn1c(-c2ccccc2)cs/c1=N\c1ccc(S(N)(=O)=O)cc1` [EMAC8002m] was 252 to 253 °C; that for `Cn1c(-c2ccc(F)cc2F)cs/c1=N\c1ccc(S(N)(=O)=O)cc1` [EMAC8002g] was 239 to 240 °C; that for `COc1ccc(-c2cs/c(=N\c3ccc(S(N)(=O)=O)cc3)n2C)cc1` [EMAC8002k] was 243 to 244 °C. On the same count and under the same terms, the value for `Cn1c(-c2ccc(Cl)cc2)cs/c1=N\c1ccc(S(N)(=O)=O)cc1` [EMAC8002b] was 241 to 242 °C; that for `Cn1c(-c2ccc(Cl)cc2Cl)cs/c1=N\c1ccc(S(N)(=O)=O)cc1` [EMAC8002e] was 256 to 257 °C; that for `Cn1c(-c2ccc(Br)cc2)cs/c1=N\c1ccc(S(N)(=O)=O)cc1` [EMAC8002a] was 256 to 259 °C. Same read-out and setting: the value for `Cn1c(-c2cccc([N+](=O)[O-])c2)cs/c1=N\c1ccc(S(N)(=O)=O)cc1` [EMAC8002d] was 235 to 236 °C. `Cn1c(-c2ccc([N+](=O)[O-])cc2)cs/c1=N\c1ccc(S(N)(=O)=O)cc1` [EMAC8002h] returned a melting point of 244 to 245 °C. Molecule `Cn1c(-c2ccc(-c3ccccc3)cc2)csc1=Nc1ccc(S(N)(=O)=O)cc1` [EMAC8002i] showed a melting point of 254 to 255 °C. This molecule showed a Ki on hCA XII of 9.5 nM. Further, on hCA XII (ratio of Ki hCA II to Ki hCA XII), the “selective index hCA II/hCA XII” value is recorded as “higher than 52”. Besides, affinity at hCA II was put at a Ki of 503 nM. Also, at hCA I, the inhibitory constant (Ki) amounted to 8910 nM. Moreover, at hCA IX, the affinity, expressed as Ki, was 1390 nM.

Consider `Cn1c(-c2ccc(C#N)cc2)cs/c1=N\c1ccc(S(N)(=O)=O)cc1` [EMAC8002f], for which the melting point was in the range of 237 to 238 °C. The molecule `Cc1ccc(-c2cs/c(=N\c3ccc(S(N)(=O)=O)cc3)n2C)cc1` [EMAC8002j] showed a melting point of 252 to 254 °C.
